Experiments:
Plutella xylostella = experiment: Example B2: Plutella xylostella (diamond back moth), artificial diet, L2 larvae; format: in vivo; conditions: 120 h, application rate 200 ppm, 5 days after infestation, read-out: effect in at least one of the two categories (mortality or growth inhibition)
Description: Example B2: Plutella xylostella (Diamond Back Moth)
(§1) 24-well microtiter plates with artificial diet were treated with aqueous test solutions prepared from 10,000 ppm DMSO stock solutions by pipetting. After drying, the plates were infested with L2 larvae (10 to 15 per well). The samples were assessed for mortality and growth inhibition in comparison to untreated samples 5 days after infestation.

Diabrotica balteata = experiment: Example B3: Diabrotica balteata (corn root worm), maize sprouts, L2 larvae; format: in vivo; conditions: 96 h, application rate 200 ppm, 4 days after infestation, read-out: effect in at least one of the two categories (mortality or growth inhibition)
Description: Example B3: Diabrotica balteata (Corn Root Worm)
as §1, with “Maize sprouts, placed on an agar layer in 24-well” for “24-well”, “plates” for “plates with artificial diet”, “spraying.” for “pipetting.”, “(6” for “(10”, “10” for “15”, “4” for “5”

Spodoptera littoralis = experiment: Example B1: Spodoptera littoralis (Egyptian cotton leaf worm), cotton leaf disc spray, L1 larvae; format: in vivo; conditions: foliar, 72 h, application rate 200 ppm, 3 days after infestation, read-out: control (at least one of mortality, anti-feedant effect, growth inhibition)
Description: Example B1: Spodoptera littoralis (Egyptian Cotton Leaf Worm)
Cotton leaf discs were placed on agar in 24-well microtiter plates and sprayed with aqueous test solutions prepared from 10,000 ppm DMSO stock solutions. After drying, the leaf discs were infested with five L1 larvae. The samples were assessed for mortality, anti-feedant effect, and growth inhibition in comparison to untreated samples 3 days after infestation. Control of Spodoptera littoralis by a test sample is when at least one of mortality, anti-feedant effect, and growth inhibition is higher than the untreated sample.

[1] = system: Frankliniella occidentalis; experiment: Example B6: Frankliniella occidentalis (western flower thrips), sunflower leaf disc spray; format: in vivo; conditions: foliar, 168 h, application rate 200 ppm, 7 days after infestation, mixed ages
Description: Example B6: Frankliniella occidentalis (Western Flower Thrips)
(§2) Sunflower leaf discs were placed on agar in 24-well microtiter plates and sprayed with aqueous test solutions prepared from 10,000 DMSO stock solutions. After drying the leaf discs were infested with a Frankliniella population of mixed ages. The samples were assessed for mortality 7 days after infestation.

Euschistus heros = experiment: Example B4: Euschistus heros, soybean leaf spray, N-2 nymphs; format: in vivo; conditions: 120 h, application rate 200 ppm, 5 days after infestation, read-out: effect in at least one of the two categories (mortality or growth inhibition)
Description: Example B4: Euschistus heros
Soybean leaf on agar in 24-well microtiter plates were sprayed with aqueous test solutions prepared from 10,000 ppm DMSO stock solutions. After drying the leaf were infested with N-2 nymphs. The samples were assessed for growth inhibition in comparison to untreated samples 5 days after infestation.

Thrips tabaci = experiment: Example B5: Thrips tabaci (onion thrips), sunflower leaf disc spray; format: in vivo; conditions: foliar, 144 h, application rate 200 ppm, 6 days after infestation, mixed ages
Description: Example B5: Thrips tabaci (Onion Thrips)
as §2, with “10,000 ppm” for “10,000”, “thrips” for “Frankliniella”, “6” for “7”

Row | SMILES | percent control (mortality or growth inhibition) at 200 ppm (Plutella xylostella) [%] | percent effect (mortality or growth inhibition) at 200 ppm (Diabrotica balteata) [%] | control at 200 ppm (Spodoptera littoralis) [%] | mortality at 200 ppm [1] [%] | percent effect (mortality or growth inhibition) at 200 ppm (Euschistus heros) [%] | mortality at 200 ppm (Thrips tabaci) [%] | melting point [°C]
1 | CC(C)c1ccccc1NC(=O)Nc1ccc2cc(-c3ncn(-c4ccc(OC(F)(F)F)cc4)n3)ccc2n1 [Compound P1.3, 1-(2-isopropylphenyl)-3-[6-[1-[4-(trifluoromethoxy)phenyl]-1,2,4-triazol-3-yl]-2-quinolyl]urea] | ≥ 80 | ≥ 80 |  |  |  |  | 
2 | CC(C)c1ccccc1NC(=S)Nc1ccc2cc(-c3ncn(-c4ccc(OC(F)(F)F)cc4)n3)ccc2n1 [Compound P1.4, 1-(2-isopropylphenyl)-3-[6-[1-[4-(trifluoromethoxy)phenyl]-1,2,4-triazol-3-yl]-2-quinolyl]thiourea] | ≥ 80 | ≥ 80 | ≥ 80 |  |  |  | 
3 | CC(C)c1ccccc1N1CS/C1=N\c1ccc2cc(-c3ncn(-c4ccc(OC(F)(F)F)cc4)n3)ccc2n1 [Compound P2.1, 3-(2-isopropylphenyl)-N-[6-[1-[4-(trifluoromethoxy)phenyl]-1,2,4-triazol-3-yl]-2-quinolyl]-1,3-thiazetidin-2-imine] | ≥ 80 | ≥ 80 | ≥ 80 | ≥ 80 |  |  | 
4 | Cc1cs/c(=N\c2ccc3cc(-c4ncn(-c5ccc(OC(F)(F)F)cc5)n4)ccc3n2)n1-c1ccccc1C(C)C [Compound P2.2, 3-(2-isopropylphenyl)-4-methyl-N-[6-[1-[4-(trifluoromethoxy)phenyl]-1,2,4-triazol-3-yl]-2-quinolyl]thiazol-2-imine] | ≥ 80 | ≥ 80 | ≥ 80 | ≥ 80 |  |  | 
5 | CC(C)c1ccccc1N1C(=O)CS/C1=N\c1ccc2cc(-c3ncn(-c4ccc(OC(F)(F)F)cc4)n3)ccc2n1 [Compound P2.3, (2Z)-3-(2-isopropylphenyl)-2-[[6-[1-[4-(trifluoromethoxy)phenyl]-1,2,4-triazol-3-yl]-2-quinolyl]imino]thiazolidin-4-one] | ≥ 80 | ≥ 80 | ≥ 80 | ≥ 80 |  |  | 
6 | CC(C)c1ccccc1/N=C1/SCC(=O)N1c1ccc2cc(-c3ncn(-c4ccc(OC(F)(F)F)cc4)n3)ccc2n1 [Compound P2.4, (2E)-2-(2-isopropylphenyl)imino-3-[6-[1-[4-(trifluoromethoxy)phenyl]-1,2,4-triazol-3-yl]-2-quinolyl]thiazolidin-4-one] | ≥ 80 | ≥ 80 | ≥ 80 | ≥ 80 | ≥ 80 | ≥ 80 | 
7 | Cc1cccc(C)c1NC(=O)Nc1ncc2cc(-c3ncn(-c4ccc(OC(F)(F)F)cc4)n3)ccc2n1 [Compound P2.6, 1-(2,6-dimethylphenyl)-3-[6-[1-[4-(trifluoromethoxy)phenyl]-1,2,4-triazol-3-yl]quinazolin-2-yl]urea] |  |  |  |  |  |  | 247 to 249
8 | Cc1cccc(C)c1N1/C(=N/c2ncc3cc(-c4ncn(-c5ccc(OC(F)(F)F)cc5)n4)ccc3n2)SCC1(C)O (stereo not shown) [Compound P2.7, (2Z)-3-(2,6-dimethylphenyl)-4-methyl-2-[6-[1-[4-(trifluoromethoxy)phenyl]-1,2,4-triazol-3-yl]quinazolin-2-yl]imino-thiazolidin-4-ol] |  | ≥ 80 |  |  | ≥ 80 |  | 
9 | Cc1cccc(C)c1N1CS/C1=N\c1ncc2cc(-c3ncn(-c4ccc(OC(F)(F)F)cc4)n3)ccc2n1 [Compound P2.8, 3-(2,6-dimethylphenyl)-N-[6-[1-[4-(trifluoromethoxy)phenyl]-1,2,4-triazol-3-yl]quinazolin-2-yl]-1,3-thiazetidin-2-imine] |  |  |  |  |  |  | 227 to 229
10 | Cc1cccc(C)c1N1C(=O)CS/C1=N\c1ncc2cc(-c3ncn(-c4ccc(OC(F)(F)F)cc4)n3)ccc2n1 [Compound P2.9, (2Z)-3-(2,6-dimethylphenyl)-2-[6-[1-[4-(trifluoromethoxy)phenyl]-1,2,4-triazol-3-yl]quinazolin-2-yl]imino-thiazolidin-4-one] | ≥ 80 | ≥ 80 | ≥ 80 |  |  |  | 
11 | Cc1cccc(C)c1NC(=S)Nc1cnc2cc(-c3ncn(-c4ccc(OC(F)(F)F)cc4)n3)ccc2n1 [Compound P2.11, 1-(2,6-dimethylphenyl)-3-[6-[1-[4-(trifluoromethoxy)phenyl]-1,2,4-triazol-3-yl]quinoxalin-2-yl]thiourea] | ≥ 80 | ≥ 80 | ≥ 80 |  |  |  | 
12 | Cc1cccc(C)c1N1CS/C1=N\c1cnc2cc(-c3ncn(-c4ccc(OC(F)(F)F)cc4)n3)ccc2n1 [Compound P2.12, 3-(2,6-dimethylphenyl)-N-[6-[1-[4-(trifluoromethoxy)phenyl]-1,2,4-triazol-3-yl]quinoxalin-2-yl]-1,3-thiazetidin-2-imine] |  |  | ≥ 80 | ≥ 80 |  |  | 
13 | Cc1cccc(C)c1NC(=S)Nc1ccc2cc(-c3ncn(-c4ccc(OC(F)(F)F)cc4)n3)ccc2c1 [Compound P2.13, 1-(2,6-dimethylphenyl)-3-[6-[1-[4-(trifluoromethoxy)phenyl]-1,2,4-triazol-3-yl]-2-naphthyl]thiourea] | ≥ 80 | ≥ 80 | ≥ 80 |  |  |  | 
14 | Cc1cccc(C)c1N1CS/C1=N\c1nc2ccc(-c3ncn(-c4ccc(OC(F)(F)F)cc4)n3)cc2s1 [Compound P2.14, 3-(2,6-dimethylphenyl)-N-[6-[1-[4-(trifluoromethoxy)phenyl]-1,2,4-triazol-3-yl]-1,3-benzothiazol-2-yl]-1,3-thiazetidin-2-imine] | ≥ 80 |  | ≥ 80 |  |  | ≥ 80 | 
15 | Cc1cccc(C)c1/N=C1/SCN1c1nc2ccc(-c3ncn(-c4ccc(OC(F)(F)F)cc4)n3)cc2s1 [Compound P2.15, N-(2,6-dimethylphenyl)-3-[6-[1-[4-(trifluoromethoxy)phenyl]-1,2,4-triazol-3-yl]-1,3-benzothiazol-2-yl]-1,3-thiazetidin-2-imine] |  |  |  |  |  |  | > 250
16 | Cc1cccc(C)c1NC(=S)Nc1nc2ccc(-c3ncn(-c4ccc(OC(F)(F)F)cc4)n3)cc2s1 [Compound P2.17, 1-(2,6-dimethylphenyl)-3-[6-[1-[4-(trifluoromethoxy)phenyl]-1,2,4-triazol-3-yl]-1,3-benzothiazol-2-yl]thiourea] | ≥ 80 | ≥ 80 | ≥ 80 |  | ≥ 80 |  | 

Source: US10687531B2, “Urea and thiourea substituted bicycles derivatives as pesticides” (SYNGENTA PARTICIPATIONS AG, priority 2016, dated 2020)
